Patent publication US6451571B1, “Thymidine kinase mutants” (University of Washington, priority 1994, dated 2002)

Assays:
[1] = Time course analysis of thymidine phosphorylation by cell-free translation products; type: biochemical; details: for TK activity (thymidine phosphorylation) in time course compared to wild-type TK: cell-free translation products, 30° C., adjusted to protein synthesis levels; for classification on the basis of TK activities: high-activity or low-activity subset
Description: The transcripts described above were then used in a rabbit reticulocyte lysate cell-free translation system to synthesize active enzymes. Cell-free translation was according to Promega using nuclease-treated rabbit reticulocyte lysates.
For the high-activity mutant enzymes, unlabeled translation products were diluted 1/9 and incubated for 0, 5, 10, 20, or 30 minutes at 30° C. The TK activity results (counts per minute) were adjusted to reflect equivalent protein synthesis levels using the corresponding TCA-precipitable counts (^35S cpm).
The low-activity mutants were diluted 1/5, and the rate of phosphorylation as a function of time was also determined.

[2] = type: biochemical; details: for thermal stability compared to HSVTKII after 42° C. preincubation: cell-free translation products
Description: To substantiate this observation, cell-free translation products were incubated at 42° C. for increasing times prior to being assayed for enzyme activity. Briefly, cell free translation (“CFT”) products of each high-activity mutant, -RNA, and HSVTKII samples were diluted 1/9 and incubated for 0, 5, 10, and 20 minutes at 42° C. The preincubated samples were then assayed for 5 minutes (P155A/F161V and F161I) or 20 minutes (-RNA, HSVTKII, F161C, and D162E). The percent of activity remaining was determined with the untreated samples set at 100%. […] Because F161C lost greater than 90% of enzyme activity within the first 20 minutes at 42° C., shorter incubation periods at 42° C. were performed (0, 5, 10, and 20 minutes).
Low-activity mutant CFT products were diluted 1/5 and incubated for 0, 20, 40, or 60 minutes at 42° C. The preincubated samples were then assayed in triplicate for the thymidine phosphorylation for 60 minutes. The percent of activity remaining was determined using the untreated (time 0) sample as 100%.

[3] = Substrate specificity assay, ACV; type: biochemical; details: cell-free translation products, 2 hours at 30° C.
Description: (§1) Three of the mutants (P155A/F161V, F161I and F161C) were assayed in triplicate for the relative levels of phosphorylation using thymidine, deoxycytidine, ACV, GCV, or AZT as substrates. Briefly, forty-eight […] of each tritiated substrate was used in each assay reaction. Translation products were diluted for each nucleoside assay as follows (translation/H2O). 1/100, thymidine; 2/3, deoxycytidine, GCV, and AZT; 4/1, ACV. Each set of assays was incubated for 2 hours at 30° C. and the amount of phosphorylated product determined.

[4] = Substrate specificity assay, deoxycytidine; type: biochemical; details: cell-free translation products, 2 hours at 30° C.
Description: as §1

E. coli KY895 = assay: Secondary screen: colony formation on acyclovir, AZT, LB and TK selection plates; type: cell-based; parameters: key to ACV / AZT / LB / 37° C. / 42° C.: ++: the same number of colonies were observed as compared to control plates; +: fewer (<20% those observed with pMCC) and generally smaller (˜50% smaller diameter) colonies were observed as compared to control plates; −: no colonies were observed; details: for utilization of nucleoside analogues over thymidine in comparison to the wild-type: ACV and AZT plates; for AZT: colonies on AZT plates: 1 μg/mL thymidine + 0.05 μg/mL AZT; for AZT / ACV: 37° C.; for LB: colonies on LB+carb50 plates; for 37° C.: colonies on TK selection plates at 37° C.; for 42° C.: colonies on TK selection plates at 42° C.; for ACV: colonies on acyclovir plates: 1 μg/mL thymidine + 1 μg/mL acyclovir
Description: The ability of pMCC (KY895) and 35 log-phase mutant pMDC (KY895) cultures to produce colonies on acyclovir (“ACV”) or AZT plates was determined in a secondary screen as described below. Briefly, log-phase cultures of TK positive clones were serially diluted in 0.9% NaCl and spread onto acyclovir or AZT plates (TK selection plates except 1 μ/mL thymidine+1 μg/mL acyclovir or 0.05 μg/mL AZT). Mutant cultures were also spread onto duplicate TK selection and LB+carb^50 plates. One set of TK selection plates and LB+carb^50 plates were incubated at 42° C. All other plates were incubated at 37° C. After 16-24 hours the plates were scored.
Briefly, only mutants that gave results which differed from those observed with the wild-type pMCC (KY895) are shown.

[5] = Substrate specificity assay, thymidine; type: biochemical; details: cell-free translation products, 2 hours at 30° C.
Description: as §1

D162E
TK activity (thymidine phosphorylation) in time course compared to wild-type TK [1]: no difference in activities when compared to the wild-type TK | classification on the basis of TK activities [1]: high-activity

D162G
thermal stability compared to HSVTKII after 42° C. preincubation [2]: equivalent to HSVTKII | classification on the basis of TK activities [1]: low-activity

F161C
activity loss after only 5 minutes at 42° C. ([2]; cell-free translation product): ~85% | loss of enzyme activity within the first 20 minutes at 42° C. ([2]; cell-free translation product): greater than 90% | thermal stability compared to HSVTKII after 42° C. preincubation [2]: exceptionally thermolabile | TK activity (thymidine phosphorylation) in time course compared to wild-type TK [1]: no difference in activities when compared to the wild-type TK | classification on the basis of TK activities [1]: high-activity | phosphorylation of ACV over HSVTKII [3]: 2 fold | phosphorylation of deoxycytidine over the wild-type enzyme [4]: 2.8 fold | utilization of nucleoside analogues over thymidine in comparison to the wild-type (E. coli KY895): preferentially utilize one or both nucleoside analogues over thymidine | AZT (E. coli KY895): − | LB (E. coli KY895): ++ | 37° C. (E. coli KY895): ++ | 42° C. (E. coli KY895): ++ | ACV (E. coli KY895): + (fewer (<20% those observed with pMCC) and generally smaller (˜50% smaller diameter) colonies were observed as compared to control plates)

F161I
TK activity (thymidine phosphorylation) in time course compared to wild-type TK [1]: statistically higher affinity for thymidine than the wild-type TK | classification on the basis of TK activities [1]: high-activity | phosphorylation of thymidine relative to HSVTKII [5]: 2.2 fold | phosphorylation of deoxycytidine over the wild-type enzyme [4]: 1.9 fold | utilization of nucleoside analogues over thymidine in comparison to the wild-type (E. coli KY895): preferentially utilize one or both nucleoside analogues over thymidine | AZT (E. coli KY895): + (fewer (<20% those observed with pMCC) and generally smaller (˜50% smaller diameter) colonies were observed as compared to control plates) | LB (E. coli KY895): ++ | 37° C. (E. coli KY895): ++ | 42° C. (E. coli KY895): ++ | ACV (E. coli KY895): + (fewer (<20% those observed with pMCC) and generally smaller (˜50% smaller diameter) colonies were observed as compared to control plates)

F161I/R163H
thermal stability compared to HSVTKII after 42° C. preincubation [2]: equivalent to HSVTKII | classification on the basis of TK activities [1]: low-activity | ability to form colonies on TK selection plates at 42° C. (E. coli KY895): severely reduced ability to form colonies | AZT (E. coli KY895): ++ | LB (E. coli KY895): ++ | 37° C. (E. coli KY895): ++ | 42° C. (E. coli KY895): + (fewer (<20% those observed with pMCC) and generally smaller (˜50% smaller diameter) colonies were observed as compared to control plates) | ACV (E. coli KY895): ++

F161L
thermal stability compared to HSVTKII after 42° C. preincubation [2]: more thermolabile that HSVTKII | TK activity (thymidine phosphorylation) in time course compared to wild-type TK [1]: moderate ability to phosphorylate thymidine, albeit at a much reduced rate from HSVTKII | classification on the basis of TK activities [1]: low-activity | ability to form colonies on TK selection plates at 42° C. (E. coli KY895): unable to form colonies | AZT (E. coli KY895): ++ | LB (E. coli KY895): ++ | 37° C. (E. coli KY895): ++ | 42° C. (E. coli KY895): − | ACV (E. coli KY895): ++

P155A/F161V
TK activity (thymidine phosphorylation) in time course compared to wild-type TK [1]: statistically higher affinity for thymidine than the wild-type TK | classification on the basis of TK activities [1]: high-activity | phosphorylation of ACV over HSVTKII [3]: 2.4 fold | phosphorylation of thymidine relative to HSVTKII [5]: 2.6 fold | phosphorylation of deoxycytidine over the wild-type enzyme [4]: 2.8 fold | utilization of nucleoside analogues over thymidine in comparison to the wild-type (E. coli KY895): preferentially utilize one or both nucleoside analogues over thymidine | AZT (E. coli KY895): + (fewer (<20% those observed with pMCC) and generally smaller (˜50% smaller diameter) colonies were observed as compared to control plates) | LB (E. coli KY895): ++ | 37° C. (E. coli KY895): ++ | 42° C. (E. coli KY895): ++ | ACV (E. coli KY895): ++

R163P/H164Q
thermal stability compared to HSVTKII after 42° C. preincubation [2]: equivalent to HSVTKII | classification on the basis of TK activities [1]: low-activity | ability to form colonies on TK selection plates at 42° C. (E. coli KY895): unable to form colonies | utilization of nucleoside analogues over thymidine in comparison to the wild-type (E. coli KY895): preferentially utilize one or both nucleoside analogues over thymidine | AZT (E. coli KY895): + (fewer (<20% those observed with pMCC) and generally smaller (˜50% smaller diameter) colonies were observed as compared to control plates) | LB (E. coli KY895): ++ | 37° C. (E. coli KY895): ++ | 42° C. (E. coli KY895): − | ACV (E. coli KY895): + (fewer (<20% those observed with pMCC) and generally smaller (˜50% smaller diameter) colonies were observed as compared to control plates)
